Measurements taken from patent US20080306128A1, “Preparation of Hydrochloride Salts of Tetrazole Derivative” (priority 2004, published 2008).

Test: stability of the new salt form on longer heating at increased temperatures
Format: physicochemical

stability (decomposition on heating): does not decompose
SMILES: CCCCC1=NC2(CCCC2)C(=O)N1Cc1ccc(-c2ccccc2-c2nnn[nH]2)cc1.Cl [2-butyl-1-[2′-(1H-tetrazol-5-yl)bifenyl-4-yl-methyl]spiro[2-imidazoline-4.1′-cyclopentane]-5-one hydrochloride]
